Source: paper PMC6211260 (Journal of Enzyme Inhibition and Medicinal Chemistry, 2018)
Where two headings read alike, the source gives them in different places. One block for each molecule: values may come before it.

Columns and labels:
[1] = test system: K-562 leukaemia cell line; experiment: NCI five-dose testing; assay type: cell-based; conditions: K-562
Experimental: (§1) Screening against the cancer cell lines was carried out at the National Cancer Institute (NCI, Bethesda, Maryland, USA) applying the standard protocol of the NCI[22].

[2] = test system: MDA-MB-468 breast cancer cell line; experiment: NCI five-dose testing; assay type: cell-based; conditions: MDA-MB-468
Experimental: as §1

[3] = test system: A498 renal cancer cell line; experiment: NCI five-dose testing; assay type: cell-based; conditions: A498
Experimental: as §1

[4] = test system: OVCAR-4 ovarian cancer cell line; experiment: NCI five-dose testing; assay type: cell-based; conditions: OVCAR-4
Experimental: as §1

[5] = test system: HT-29 colon cancer cell line; experiment: NCI five-dose testing; assay type: cell-based; conditions: HT-29
Experimental: as §1

[6] = test system: HOP-92 non-small cell lung cancer cell line; experiment: NCI five-dose testing; assay type: cell-based; conditions: HOP-92
Experimental: as §1

[7] = test system: SK-MEL-5 melanoma cell line; experiment: NCI five-dose testing; assay type: cell-based; conditions: SK-MEL-5
Experimental: as §1

[8] = test system: U251 CNS cancer cell line; experiment: NCI five-dose testing; assay type: cell-based
Experimental: as §1

[9] = test system: PC-3 prostate cancer cell line; experiment: NCI five-dose testing; assay type: cell-based; conditions: PC-3
Experimental: as §1

[10] = test system: ovarian cancer cell lines; experiment: NCI five-dose testing, subpanel mean; assay type: cell-based; conditions: subpanel VI: ovarian cancer
Experimental: as §1

[11] = test system: non-small cell lung cancer cell lines; experiment: NCI five-dose testing, subpanel mean; assay type: cell-based; conditions: subpanel II: non-small cell lung cancer
Experimental: as §1

renal cancer cell lines = experiment: NCI five-dose testing, subpanel mean; assay type: cell-based; conditions: subpanel VII: renal cancer
Experimental: as §1

[12] = test system: prostate cancer cell lines; experiment: NCI five-dose testing, subpanel mean; assay type: cell-based; conditions: subpanel VIII: prostate cancer
Experimental: as §1

CNS cancer cell lines = experiment: NCI five-dose testing, subpanel mean; assay type: cell-based; conditions: subpanel IV: CNS cancer
Experimental: as §1

breast cancer cell lines = experiment: NCI five-dose testing, subpanel mean; assay type: cell-based; conditions: subpanel IX: breast cancer
Experimental: as §1

colon cancer cell lines = experiment: NCI five-dose testing, subpanel mean; assay type: cell-based; conditions: subpanel III: colon cancer
Experimental: as §1

Leukaemia cell lines = experiment: NCI five-dose testing, subpanel mean; assay type: cell-based; conditions: subpanel I: Leukaemia
Experimental: as §1

melanoma cell lines = experiment: NCI five-dose testing, subpanel mean; assay type: cell-based; conditions: subpanel V: melanoma
Experimental: as §1

Plasma stability = assay type: in vitro ADME; conditions: 37 °C, 10 µM
Experimental: About 10 µM of compound 2l was mixed with human plasma and rat plasma and the mixture was shaked at 37 °C for 30 min and 120 min. After each time interval, acetonitrile was added and the mixture was centrifugated (14000 rpm, 4 °C). The supernatant was injected into the LC-MS to detect the remaining amount of compound 2l.

[13] = read-out: TGI (total growth inhibition concentration)

melting point: 104 to 106 °C
Structure (SMILES): COc1cccc(-c2nn(-c3ccccc3)cc2-c2ccnc(NCCNS(=O)(=O)c3ccccc3)c2)c1 [Compound 1a, N-(2-((4-(3-(3-methoxyphenyl)-1-phenyl-1H-pyrazol-4-yl)pyridin-2-yl)amino)ethyl) benzenesulfonamide]

melting point: 144 to 146 °C
Structure (SMILES): COc1ccc(S(=O)(=O)NCCNc2cc(-c3cn(-c4ccccc4)nc3-c3cccc(OC)c3)ccn2)cc1 [Compound 1e, 4-Methoxy-N-(2-((4-(3-(3-methoxyphenyl)-1-phenyl-1H-pyrazol-4-yl)pyridin-2-yl)amino)ethyl)benzenesulfonamide]

melting point: 150 to 152 °C
Structure (SMILES): COc1cccc(-c2nn(-c3ccccc3)cc2-c2ccnc(NCCNS(=O)(=O)c3ccc(C)cc3)c2)c1 [Compound 1f, N-(2-((4-(3-(3-Methoxyphenyl)-1-phenyl-1H-pyrazol-4-yl)pyridin-2-yl)amino)ethyl)-4-methylbenzenesulfonamide]

melting point: 118 to 120 °C
Structure (SMILES): COc1cccc(-c2nn(-c3ccccc3)cc2-c2ccnc(NCCNS(=O)(=O)c3cccc(F)c3)c2)c1 [Compound 1h, 3-Fluoro-N-(2-((4-(3-(3-methoxyphenyl)-1-phenyl-1H-pyrazol-4-yl)pyridin-2-yl)amino)ethyl)benzenesulfonamide]

melting point: 178 to 180 °C
Structure (SMILES): COc1cccc(-c2nn(-c3ccccc3)cc2-c2ccnc(NCCNS(=O)(=O)c3cccc4ccccc34)c2)c1 [Compound 1i, N-(2-((4-(3-(3-Methoxyphenyl)-1-phenyl-1H-pyrazol-4-yl)pyridin-2-yl)amino)ethyl)naphthalene-1-sulfonamide]

melting point: 146 to 148 °C
Structure (SMILES): O=S(=O)(NCCNc1cc(-c2cn(-c3ccccc3)nc2-c2cccc(O)c2)ccn1)c1cccc2ccccc12 [Compound 1q, N-(2-((4-(3-(3-Hydroxyphenyl)-1-phenyl-1H-pyrazol-4-yl)pyridin-2-yl)amino)ethyl)naphthalene-1-sulfonamide]

melting point: 119 to 120 °C
Structure (SMILES): COc1cccc(-c2nn(-c3ccccc3)cc2-c2ccnc(NCCCNS(=O)(=O)c3ccccc3)c2)c1 [Compound 2a, N-(3-((4-(3-(3-Methoxyphenyl)-1-phenyl-1H-pyrazol-4-yl)pyridin-2-yl)amino)propyl) benzenesulfonamide]

melting point: 94 to 96 °C
Structure (SMILES): COc1cccc(-c2nn(-c3ccccc3)cc2-c2ccnc(NCCCNS(=O)(=O)c3ccc(C)cc3)c2)c1 [Compound 2f, N-(3-((4-(3-(3-Methoxyphenyl)-1-phenyl-1H-pyrazol-4-yl)pyridin-2-yl)amino)propyl)-4-methylbenzenesulfonamide]

melting point: 134 to 136 °C
Structure (SMILES): COc1cccc(-c2nn(-c3ccccc3)cc2-c2ccnc(NCCCNS(=O)(=O)c3cccc4ccccc34)c2)c1 [Compound 2i, N-(3-((4-(3-(3-Methoxyphenyl)-1-phenyl-1H-pyrazol-4-yl)pyridin-2-yl)amino)propyl) naphthalene-1-sulfonamide]

The remaining lines, values behind:

Structure (SMILES): COc1cccc(-c2nn(-c3ccccc3)cc2-c2ccnc(NCCNS(=O)(=O)c3ccc(Cl)cc3)c2)c1 [Compound 1c, 4-Chloro-N-(2-((4-(3-(3-methoxyphenyl)-1-phenyl-1H-pyrazol-4-yl)pyridin-2-yl)amino)ethyl) benzenesulfonamide]
IC50 [1]: 3.73 µM
LD50 (lethal dose 50) [1]: >100 µM
IC (TGI) [1, 13]: >100 µM
IC50 [2]: 3.9 µM
LD50 (lethal dose 50) [2]: >100 µM
IC (TGI) [2, 13]: >100 µM
IC50 [3]: 4.56 µM
LD50 (lethal dose 50) [3]: >100 µM
IC (TGI) [3, 13]: >100 µM
IC50 [4]: 4.15 µM
LD50 (lethal dose 50) [4]: >100 µM
IC (TGI) [4, 13]: >100 µM
LD50 (lethal dose 50) [5]: >100 µM
IC50 ([5]; read-out: IC50): 3.37 µM
IC (TGI) [5, 13]: 11.3 µM
IC50 [6]: 2.46 µM
LD50 (lethal dose 50) [6]: >100 µM
IC (TGI) [6, 13]: 9.4 µM
IC50 [7]: 1.95 µM
LD50 (lethal dose 50) [7]: 7.7 µM
IC (TGI) [7, 13]: 3.8 µM
LD50 (lethal dose 50) ([8]; U251): >100 µM
IC50 ([8]; U251, read-out: IC50): 5.89 µM
IC (TGI) ([8]; U251, read-out: TGI (total growth inhibition concentration)): >100 µM
LD50 (lethal dose 50) [9]: >100 µM
IC50 ([9]; read-out: IC50): 2.44 µM
IC (TGI) [9, 13]: >100 µM
IC50 [10]: 5.23 µM
IC50 [11]: 6.02 µM
IC50 (renal cancer cell lines): 4.79 µM
IC50 [12]: 4.99 µM
IC50 (CNS cancer cell lines): 6.33 µM
IC50 (breast cancer cell lines): 3.79 µM
IC50 (colon cancer cell lines): 4.08 µM
IC50 (Leukaemia cell lines): 2.89 µM
IC50 (melanoma cell lines): 4.58 µM

Structure (SMILES): O=S(=O)(NCCNc1cc(-c2cn(-c3ccccc3)nc2-c2cccc(O)c2)ccn1)c1ccccc1 [Compound 1j, N-(2-((4-(3-(3-Hydroxyphenyl)-1-phenyl-1H-pyrazol-4-yl)pyridin-2-yl)amino)ethyl) benzenesulfonamide]
melting point: 100 to 102 °C

Structure (SMILES): Cc1ccc(S(=O)(=O)NCCNc2cc(-c3cn(-c4ccccc4)nc3-c3cccc(O)c3)ccn2)cc1 [Compound 1n, N-(2-((4-(3-(3-Hydroxyphenyl)-1-phenyl-1H-pyrazol-4-yl)pyridin-2-yl)amino)ethyl)-4-methylbenzenesulfonamide]
melting point: 114 to 116 °C

Structure (SMILES): O=S(=O)(NCCNc1cc(-c2cn(-c3ccccc3)nc2-c2cccc(O)c2)ccn1)c1cccc(F)c1 [Compound 1p, 3-Fluoro-N-(2-((4-(3-(3-hydroxyphenyl)-1-phenyl-1H-pyrazol-4-yl)pyridin-2-yl)amino)ethyl)benzenesulfonamide]
melting point: 146 to 148 °C

Structure (SMILES): COc1ccc(S(=O)(=O)NCCCNc2cc(-c3cn(-c4ccccc4)nc3-c3cccc(OC)c3)ccn2)cc1 [Compound 2e, 4-Methoxy-N-(3-((4-(3-(3-methoxyphenyl)-1-phenyl-1H-pyrazol-4-yl)pyridin-2-yl)amino)propyl)benzenesulfonamide]
melting point: 124 to 126 °C

Structure (SMILES): O=S(=O)(NCCCNc1cc(-c2cn(-c3ccccc3)nc2-c2cccc(O)c2)ccn1)c1ccccc1 [Compound 2j, N-(3-((4-(3-(3-Hydroxyphenyl)-1-phenyl-1H-pyrazol-4-yl)pyridin-2-yl)amino)propyl) benzenesulfonamide]
melting point: 154 to 156 °C

Structure (SMILES): Cc1ccc(S(=O)(=O)NCCCNc2cc(-c3cn(-c4ccccc4)nc3-c3cccc(O)c3)ccn2)cc1 [Compound 2n, N-(3-((4-(3-(3-Hydroxyphenyl)-1-phenyl-1H-pyrazol-4-yl)pyridin-2-yl)amino)propyl)-4-methylbenzenesulfonamide]
melting point: 158 to 160 °C

Structure (SMILES): COc1ccc([C@@H]2Sc3ccccc3N(CCN(C)C)C(=O)[C@@H]2OC(C)=O)cc1 [Diltiazem]
Plasma stability, remaining unchanged (Plasma stability; Human plasma, 30 min): 91.5%
Plasma stability, remaining unchanged (Plasma stability; Human plasma, 30 min, listed as diltiazem): 91.5%
Plasma stability, remaining unchanged (Plasma stability; Human plasma, 120 min): 89.3%
Plasma stability, remaining unchanged (Plasma stability; Human plasma, 120 min, listed as diltiazem): 89.3%
Plasma stability, remaining unchanged (Plasma stability; Rat plasma, 30 min): 86.3%
Plasma stability, remaining unchanged (Plasma stability; Rat plasma, 120 min): 45.4%

Structure (SMILES): CCN(CC)CCOC(=O)c1ccc(N)cc1 [Procaine]
Plasma stability, remaining unchanged (Plasma stability; Human plasma, 30 min): 1.2%
Plasma stability, remaining unchanged (Plasma stability; Human plasma, 30 min, listed as procaine): 1.2%
Plasma stability, remaining unchanged (Plasma stability; Human plasma, 120 min): 0.2%
Plasma stability, remaining unchanged (Plasma stability; Human plasma, 120 min, listed as procaine): 0.2%
Plasma stability, remaining unchanged (Plasma stability; Rat plasma, 30 min): 89.9%
Plasma stability, remaining unchanged (Plasma stability; Rat plasma, 120 min): 42.7%

Structure (SMILES): CNC(=O)c1cc(Oc2ccc(NC(=O)Nc3ccc(Cl)c(C(F)(F)F)c3)cc2)ccn1 [Sorafenib, reference compound]
IC50 ([2]; Homo sapiens): 1.99 µM
IC50 ([5]; Homo sapiens): 2.51 µM
IC50 ([6]; Homo sapiens): 1.85 µM
IC50 ([7]; Homo sapiens): 1.25 µM
IC50 ([8]; Homo sapiens, U-251): 2.51 µM
IC50 ([9]; Homo sapiens): 2.51 µM
IC50 [10]: 2.77 µM
IC50 [11]: 2.11 µM
IC50 (renal cancer cell lines): 2.89 µM
IC50 [12]: 3.16 µM
IC50 (CNS cancer cell lines): 2.51 µM
IC50 (breast cancer cell lines): 2.15 µM
IC50 (colon cancer cell lines): 2.35 µM
IC50 (Leukaemia cell lines): 2.23 µM
IC50 (melanoma cell lines): 8.57 µM
